≈ marks a conversion by molar mass, not a printed value.
Assays:
[1] = test system: Escherichia coli BW 25113; assay: Minimal Inhibitory Concentration (MIC) broth dilution assay, E. coli BW 25113; type: cell-based; settings: Escherichia coli, BW25113, 20 hours at 35° C., CAMHB, read-out: MIC E. coli K-12 BW 25113
Protocol: (§1) The antibacterial activity of molecules was evaluated against the commonly used quality control strain Escherichia coli BW 25113, Escherichia coli ATCC 25922 and the rifampin-resistant mutant strain Klebsiella pneumonia ATCC 43816. Escherichia co/i BW 25113 was obtained from the Coli Genetic Stock Center (CGSC) (strain 7636). Both Escherichia coli ATCC 25922 and Klebsiella pneumonia ATCC 43816 were originally derived from human clinical samples and are available from ATCC (American Type Culture Collection). The in vitro potency of compounds to inhibit Escherichia coli (BW 25113, ATCC 25922) and Klebsiella pneumonia (ATCC 43816) growth was assessed by the MIC (Minimal Inhibitory Concentration) broth dilution method. Specifically compound dilutions were prepared from 10 mM DMSO stock solutions as follows: i) serial 2-fold dilution in 20 μL DMSO were prepared in a master plate (Greiner, Cat No: 651201), ii) 180 μL sterile distilled water was added to each aliquot and iii) 10 μL diluted compounds were transferred into a new assay plate (Costar, 3599).
(§2) Vials of each test microorganisms were maintained frozen in the vapor phase of a liquid nitrogen freezer. Single-use frozen vials of the three strains Escherichia coli BW 25113, Escherichia coli ATCC 25922 (KWTKSTTK, 0335K) and Klebsiella pneumonia ATCC 43816, with predetermined CFU/mL, were taken out from the freezer, thawed at room temperature, and diluted in Cation-Adjusted Mueller Hinton Broth (CAMVIHB) to achieve a final inoculum of 5×10^5 CFU/mL. 90 μL bacteria containing broth was dispensed to the assay plate containing the pre-dispensed compound dilutions and mixed by pipetting 5 times.
(§3) Then the assay plates were incubated for 20 hours at 35° C. in ambient air. Following incubation, the MIC […], the lowest concentration of drug that inhibits visible growth of the microorganism was read with the help of a magnification mirror and recorded.

[2] = test system: Escherichia coli ATCC 25922; assay: Minimal Inhibitory Concentration (MIC) broth dilution assay, E. coli ATCC 25922; type: cell-based; settings: Escherichia coli, ATCC25922, 20 h, read-out: MIC E. coli ATCC 25922
Protocol: as §1, §2, §3

[3] = test system: Klebsiella pneumonia ATCC 43816; assay: Minimal Inhibitory Concentration (MIC) broth dilution assay, K. pneumonia ATCC 43816; type: cell-based; settings: Klebsiella pneumoniae, ATCC43816, 20 hours at 35° C., CAMHB, read-out: MIC K. p ATCC 43816
Protocol: as §1, §2, §3

[4] = Human microsome stability assay; type: in vitro ADME; settings: human liver microsomes 0.5 mg/mL, 37° C., pH 7.4, NADPH regenerating system
Protocol: The human microsomal stability assay is used for early assessment of metabolic stability of a test compound in human liver microsomes.
Human liver microsomes (Cat.NO.: 452117, Corning, USA) were preincubated with test compound for 10 minutes at 37° C. in 100 mM potassium phosphate buffer, pH 7.4. The reactions were initiated by adding NADPH regenerating system. The final incubation mixtures contained 1 µM test compound, 0.5 mg/mL liver microsomal protein, 1 mM MgCl2, 1 mM NADP, 1 unit/mL isocitric dehydrogenase and 6 mM isocitric acid in 100 mM potassium phosphate buffer, pH 7.4. After incubation times of 0, 3, 6, 9, 15 and 30 minutes at 37° C., 300 μL of cold acetonitrile (including internal standard) was added to 100 μL incubation mixture to terminate the reaction. Following precipitation and centrifugation, the amount of compound remaining in the samples were determined by LC-MS/MS. Controls of no NADPH regenerating system at zero and 30 minutes were also prepared and analyzed. […] (Human microsome clearance: <7 mL/min/kg: low; 7-16.2 mL/min/kg: medium; >16.2 mL/min/kg: high)

| SMILES | MIC [1] [µg/mL] | MIC [2] [µg/mL] | MIC [3] [µg/mL] | Clearance of Human microsome [4] [mL/min/kg] |
| --- | --- | --- | --- | --- |
| NC1CC(=O)N(c2ccc(S(=O)(=O)N3CCN(c4cc(C(F)(F)c5ccc(C(=O)NCCCO)cc5)cc(Cl)n4)CC3)cc2)C1 (stereo not shown) [Example 015, 4-[[2-[4-[4-(4-amino-2-oxo-pyrrolidin-1-yl)phenyl]sulfonylpiperazin-1-yl]-6-chloro-4-pyridyl]-difluoro-methyl]-N-(3-hydroxypropyl)benzamide] | 0.7 (≈ 1.06 µM) | 0.7 (≈ 1.06 µM) | 0.7 (≈ 1.06 µM) | 9.58 |
| NCCCNC(=O)c1ccc(C(F)(F)c2cc(Cl)nc(N3CCN(S(=O)(=O)c4ccc(N5CC(N)CC5=O)cc4)CC3)c2)cc1 (stereo not shown) [Example 016, 4-[[2-[4-[4-(4-amino-2-oxo-pyrrolidin-1-yl)phenyl]sulfonylpiperazin-1-yl]-6-chloro-4-pyridyl]-difluoro-methyl]-N-(3-aminopropyl)benzamide] | 0.35 (≈ 0.529 µM) | 0.35 (≈ 0.529 µM) | 0.35 (≈ 0.529 µM) | 8.63 |
| NCCNC(=O)c1ccc(C(F)(F)c2cc(Cl)nc(N3CCN(S(=O)(=O)c4ccc(N5CC(N)CC5=O)cc4)CC3)c2)cc1 (stereo not shown) [Example 017, N-(2-aminoethyl)-4-[[2-[4-[4-(4-amino-2-oxo-pyrrolidin-1-yl)phenyl]sulfonylpiperazin-1-yl]-6-chloro-4-pyridyl]-difluoro-methyl]benzamide] | 0.35 (≈ 0.54 µM) | 0.3 (≈ 0.463 µM) | 0.45 (≈ 0.694 µM) | 9.36 |
| NCC(O)CNC(=O)c1ccc(C(F)(F)c2cc(Cl)nc(N3CCN(S(=O)(=O)c4ccc(N5CC(N)CC5=O)cc4)CC3)c2)cc1 (stereo not shown) [Example 018, N-(3-amino-2-hydroxy-propyl)-4-[[2-[4-[4-(4-amino-2-oxo-pyrrolidin-1-yl)phenyl]sulfonylpiperazin-1-yl]-6-chloro-4-pyridyl]-difluoro-methyl]benzamide] | 0.62 (≈ 0.914 µM) | 0.62 (≈ 0.914 µM) | 0.62 (≈ 0.914 µM) | 6.15 |
| NCC(O)CNC(=O)c1ccc(C(F)(F)c2cc(Cl)nc(N3CCN(S(=O)(=O)c4ccc(N5C[C@H](N)CC5=O)cc4)CC3)c2)cc1 (stereo partly drawn) [Example 019, N-(3-amino-2-hydroxy-propyl)-4-[[2-chloro-6-[4-[4-[(4R)-4-amino-2-oxo-pyrrolidin-1-yl]phenyl]sulfonylpiperazin-1-yl]-4-pyridyl]-difluoro-methyl]benzamide] | 0.35 (≈ 0.516 µM) | 0.71 (≈ 1.05 µM) | 0.35 (≈ 0.516 µM) | 10.63 |
| NCCNC(=O)[C@H]1CC[C@H](C(F)(F)c2cc(Cl)nc(N3CCN(S(=O)(=O)c4ccc(N5C[C@H](N)CC5=O)cc4)CC3)c2)CC1 [Example 041, Trans-N-(2-aminoethyl)-4-[[2-chloro-6-[4-[4-[(4R)-4-amino-2-oxo-pyrrolidin-1-yl]phenyl]sulfonylpiperazin-1-yl]-4-pyridyl]-difluoro-methyl]cyclohexanecarboxamide] | 0.54 (≈ 0.825 µM) | 0.54 (≈ 0.825 µM) | 0.54 (≈ 0.825 µM) | 9.73 |
| NCCCN(CCCN)C(=O)C12CCC(C(F)(F)c3cc(Cl)nc(N4CCN(S(=O)(=O)c5ccc(N6C[C@H](N)CC6=O)cc5)CC4)c3)(CC1)C2 [Example 046] | 2.4 (≈ 3.26 µM) | 1.2 (≈ 1.63 µM) | 1.2 (≈ 1.63 µM) | 6.15 |
| NCCCNC(=O)C1C[C@@H]2CC[C@H]1CC2C(F)(F)c1cc(Cl)nc(N2CCN(S(=O)(=O)c3ccc(N4C[C@H](N)CC4=O)cc3)CC2)c1 (stereo partly shown) [Example 053] | 0.55 (≈ 0.792 µM) | 0.57 (≈ 0.821 µM) | 0.54 (≈ 0.778 µM) | 6.15 |
| C[C@H]1C[C@H](N)CN1C(=O)[C@H]1CC[C@H](C(F)(F)c2cc(Cl)nc(N3CCN(S(=O)(=O)c4ccc(N5C[C@H](N)CC5=O)cc4)CC3)c2)CC1 [Example 064, (4R)-4-amino-1-[4-[4-[4-[[4-[(2S,4S)-4-amino-2-methyl-pyrrolidine-1-carbonyl]cyclohexyl]-difluoro-methyl]-6-chloro-2-pyridyl]piperazin-1-yl]sulfonylphenyl]pyrrolidin-2-one] | 0.67 (≈ 0.965 µM) | 0.57 (≈ 0.821 µM) | 0.57 (≈ 0.821 µM) | 6.15 |
| C[N+](CCN)(CCN)CCCNC(=O)[C@H]1CC[C@H](C(F)(F)c2cc(Cl)nc(N3CCN(S(=O)(=O)c4ccc(N5C[C@H](N)CC5=O)cc4)CC3)c2)CC1 [Example 065, Trans-bis(2-aminoethyl)-[3-[[4-[[2-[4-[4-[(4R)-4-amino-2-oxo-pyrrolidin-1-yl]phenyl]sulfonylpiperazin-1-yl]-6-chloro-4-pyridyl]-difluoro-methyl]cyclohexanecarbonyl]amino]propyl]-methyl-ammonium] | 0.66 | 0.66 | 0.66 | 8.21 |
| NC[C@@H]1CN(C(=O)[C@H]2CC[C@H](C(F)(F)c3cc(Cl)nc(N4CCN(S(=O)(=O)c5ccc(N6C[C@H](N)CC6=O)cc5)CC4)c3)CC2)C[C@@H]1CN [Example 067, Trans-(4R)-4-amino-1-[4-[4-[4-[[4-[cis-3,4-bis(aminomethyl)pyrrolidine-1-carbonyl]cyclohexyl]-difluoro-methyl]-6-chloro-2-pyridyl]piperazin-1-yl]sulfonylphenyl]pyrrolidin-2-one] | 0.59 (≈ 0.816 µM) | 0.3 (≈ 0.415 µM) | 0.57 (≈ 0.788 µM) | 6.15 |
| C[C@H]1CNC[C@@H]1NC(=O)[C@H]1CC[C@H](C(F)(F)c2cc(Cl)nc(N3CCN(S(=O)(=O)c4ccc(N5C[C@H](N)CC5=O)cc4)CC3)c2)CC1 [Example 068, Trans-4-[[2-[4-[4-[(4R)-4-amino-2-oxo-pyrrolidin-1-yl]phenyl]sulfonylpiperazin-1-y1]-6-chloro-4-pyridy1]-difluoro-methyl]-N-[(3R,4S)-4-methylpyrrolidin-3-yl]cyclohexanecarboxamide] | 0.32 (≈ 0.461 µM) | 0.32 (≈ 0.461 µM) | 0.32 (≈ 0.461 µM) | 9.49 |
| CN[C@@H]1CC(=O)N(c2ccc(S(=O)(=O)N3CCN(c4cc(C(F)(F)[C@H]5CC[C@H](C(=O)NCCCN)CC5)cc(Cl)n4)CC3)cc2)C1 [Example 069, Trans-N-(3-aminopropyl)-4-[[2-chloro-6-[4-[4-[(4R)-4-(methylamino)-2-oxo-pyrrolidin-1-yl]phenyl]sulfonylpiperazin-1-y1]-4-pyridyl]-difluoro-methyl]cyclohexanecarboxamide] | 0.56 (≈ 0.821 µM) | 0.56 (≈ 0.821 µM) | 0.56 (≈ 0.821 µM) | 10.85 |
| NC[C@@H]1CN([C@@H]2CC[C@H](NC(=O)[C@H]3CC[C@H](C(F)(F)c4cc(Cl)nc(N5CCN(S(=O)(=O)c6ccc(N7C[C@H](N)CC7=O)cc6)CC5)c4)CC3)C2)C[C@@H]1CN [Example 080, Trans-4-[[2-[4-[4-[(4R)-4-amino-2-oxo-pyrrolidin-1-yl]phenyl]sulfonylpiperazin-1-yl]-6-chloro-4-pyridyl]-difluoro-methyl]-N-[(1S,3R)-3-[cis-3,4-bis(aminomethyl)pyrrolidin-1-yl]cyclopentyl]cyclohexanecarboxamide] | 0.33 (≈ 0.409 µM) | 0.33 (≈ 0.409 µM) | 0.99 (≈ 1.23 µM) |  |

From patent publication US20240417387A1, “SULFONYLPIPERAZINYL COMPOUNDS FOR TREATMENT OF BACTERIAL INFECTIONS” (Hoffmann-La Roche Inc., priority 2021, published 2024)
